These are literature values, as cited in patent publication US10933021B2, “Compositions of gallium (III) complexes for oral administration” (Altum Pharmaceuticals Inc., priority 2017, dated 2021).

Structures are written as SMILES.

Series [1] has as its target albumin (Homo sapiens, UniProt P02768). Particulars: human serum.
The target of series [2] is transferrin (Tf) (Homo sapiens, UniProt P02787). The conditions noted are these: human serum.
For series [3] the following is noted: pH 7.4, serum.
The subject of series [4] is apoptosis induction. The conditions noted are these: compared to simple gallium salts such as gallium nitrate.
The subject of series [5] is tumor cell lines resistant to gallium nitrate.
For series [6] the following is noted: pH values below the pKa of 8-hydroxyquinoline (5.01).
The conditions of series [7]: seven patients, oral enteric coated tablets of crystalline GaQ3, 10 mg, 20 mg, 30 mg strengths.

Chain of transferrin (Tf) (P02787 20-698): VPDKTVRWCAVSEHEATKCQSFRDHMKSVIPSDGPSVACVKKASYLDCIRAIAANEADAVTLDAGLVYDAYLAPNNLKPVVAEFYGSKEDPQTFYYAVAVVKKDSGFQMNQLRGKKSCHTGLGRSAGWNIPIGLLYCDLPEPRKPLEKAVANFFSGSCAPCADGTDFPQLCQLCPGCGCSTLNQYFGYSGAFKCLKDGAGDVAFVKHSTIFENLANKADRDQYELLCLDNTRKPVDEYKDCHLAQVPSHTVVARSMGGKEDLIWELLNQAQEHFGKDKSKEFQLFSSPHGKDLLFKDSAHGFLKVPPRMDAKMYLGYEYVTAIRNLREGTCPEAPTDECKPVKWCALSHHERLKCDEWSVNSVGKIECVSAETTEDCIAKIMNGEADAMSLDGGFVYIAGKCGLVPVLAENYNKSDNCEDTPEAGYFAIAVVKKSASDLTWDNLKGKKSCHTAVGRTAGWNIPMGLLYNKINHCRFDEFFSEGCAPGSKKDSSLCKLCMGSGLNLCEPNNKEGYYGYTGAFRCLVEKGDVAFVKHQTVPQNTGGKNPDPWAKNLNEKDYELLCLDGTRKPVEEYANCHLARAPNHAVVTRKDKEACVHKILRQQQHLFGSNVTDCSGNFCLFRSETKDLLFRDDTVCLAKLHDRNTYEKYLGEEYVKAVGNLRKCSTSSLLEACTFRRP
Chain of albumin (P02768 25-609): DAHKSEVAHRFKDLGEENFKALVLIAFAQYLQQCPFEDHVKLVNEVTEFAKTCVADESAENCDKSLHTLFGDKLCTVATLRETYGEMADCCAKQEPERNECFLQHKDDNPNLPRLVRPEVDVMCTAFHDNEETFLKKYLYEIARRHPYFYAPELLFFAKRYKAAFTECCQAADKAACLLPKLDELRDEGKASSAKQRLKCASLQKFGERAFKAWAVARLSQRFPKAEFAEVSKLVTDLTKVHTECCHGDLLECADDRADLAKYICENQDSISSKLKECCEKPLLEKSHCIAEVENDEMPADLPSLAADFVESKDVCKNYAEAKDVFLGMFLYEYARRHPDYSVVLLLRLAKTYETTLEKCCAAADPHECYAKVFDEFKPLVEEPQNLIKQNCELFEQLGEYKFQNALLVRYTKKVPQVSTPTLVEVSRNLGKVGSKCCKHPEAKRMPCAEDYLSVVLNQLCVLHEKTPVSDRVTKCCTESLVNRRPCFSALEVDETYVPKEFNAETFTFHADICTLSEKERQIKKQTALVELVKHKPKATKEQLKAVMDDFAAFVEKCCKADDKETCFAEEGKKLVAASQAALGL

For `[Ga+3].[O-]c1cccc2cccnc12.[O-]c1cccc2cccnc12.[O-]c1cccc2cccnc12` [GaQ3, tris (8-quinolinolato) gallium (III)], the solubility in water is listed as 18-22 ppm. Moreover, the binding to albumin result in series [1] is listed as “binds very weakly”. The “binding to transferrin (Tf)” value in series [2] is on record as “strongly”. In series [3], the stability in serum entry is recorded as “very stable”. Moreover, in series [4], the “apoptosis induction relative to gallium nitrate” value is “ca. 3 ×”. The “activity against tumor cell lines resistant to gallium nitrate” value in series [5] is given as “active”. The “integrity of complexed structure” value in series [6] is on record as “disrupted completely”. The tolerability result in series [7] is “well tolerated”.
